For assay [1], the target named is T1, Rat A1 adenosine receptor (Rattus norvegicus, UniProt P25099).
T1 construct: A1 adenosine receptors isolated from rats; from tissue
T1 sequence (P25099 1-326): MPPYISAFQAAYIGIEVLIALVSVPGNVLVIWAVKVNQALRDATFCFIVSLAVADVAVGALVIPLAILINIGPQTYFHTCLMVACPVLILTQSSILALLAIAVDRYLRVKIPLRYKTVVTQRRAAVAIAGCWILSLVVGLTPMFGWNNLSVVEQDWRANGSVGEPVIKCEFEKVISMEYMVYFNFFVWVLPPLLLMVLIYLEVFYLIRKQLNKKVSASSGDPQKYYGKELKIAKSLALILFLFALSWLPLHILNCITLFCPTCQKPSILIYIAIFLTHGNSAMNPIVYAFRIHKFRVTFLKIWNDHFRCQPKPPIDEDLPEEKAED
The experiment in a line: Affinity for A1 adenosine receptors isolated from rats. Type of assay: binding. From the text:
These methods are known in the art. For example, the synthesis of these compounds can be guided by U.S. Pat. No. 5,248,770 or by Jacobson et al., Journal of Medicinal Chemistry, 28, 1341-1346 (1985).

The next assay deals with adenosine A1 receptors. The settings on record: cited from earlier work.

`Cc1ccc(C(=O)NCCCCNC(=O)Cc2ccc(NC(=O)Cc3ccc(Nc4ncnc5c4ncn5[C@@H]4O[C@H](CO)[C@@H](O)[C@H]4O)cc3)cc2)cc1` [compound 6] gave a Ki in assay [1] of 7.95 ± 0.76 nM. `NCCCNC(=O)Cc1ccc(NC(=O)Cc2ccc(Nc3ncnc4c3ncn4[C@@H]3O[C@H](CO)[C@@H](O)[C@H]3O)cc2)cc1` came in with an inhibition constant Ki in assay [1] of 1.96 ± 0.06 nM. For the compound `NCCCCNC(=O)Cc1ccc(NC(=O)Cc2ccc(Nc3ncnc4c3ncn4[C@@H]3O[C@H](CO)[C@@H](O)[C@H]3O)cc2)cc1`, the Ki in assay [1] stood at 1.91 ± 0.17 nM. Take `NC(=O)N1c2ccccc2C=Cc2ccccc21` [carbamazepine]: the “antagonistic properties at adenosine A1 receptors” value in the assay with adenosine A1 receptors is on record as “marginal”. As to `Cc1ccc(C(=O)NCCCNC(=O)Cc2ccc(NC(=O)Cc3ccc(Nc4ncnc5c4ncn5[C@@H]4O[C@H](CO)[C@@H](O)[C@H]4O)cc3)cc2)cc1` [compound 5], affinity in assay [1] was put at a Ki of 5.67 ± 0.055 nM. The same measure, in the same setting: the result for `Cc1ccc(C(=O)NCCNC(=O)Cc2ccc(NC(=O)Cc3ccc(Nc4ncnc5c4ncn5[C@@H]4O[C@H](CO)[C@@H](O)[C@H]4O)cc3)cc2)cc1` [compound 4] reads 11.9 ± 2 nM.

The values above are taken from patent publication US6316423A, “Method of treating ischemic, hypoxic and anoxic brain damage” (priority 1999, dated 2001).
